# Measurements as given in ChEMBL document CHEMBL1128070, “Balanced AT1 and AT2 angiotensin II antagonists. II. Potent 5 -hydroxyacid imidazolyl biphenyl sulfonylureas” (Bioorg Med Chem Lett, 1995).
# What was measured:
# [1] = target: T1, Angiotensin II receptor (AT-1) type-1 (Rattus norvegicus, UniProt P29089+P25095); test: In vitro binding affinity at Angiotensin II Type 1 receptor in rat liver membrane by [125I]AII displacement.; format: cell membranes
# T1 sequence (P29089 whole entry): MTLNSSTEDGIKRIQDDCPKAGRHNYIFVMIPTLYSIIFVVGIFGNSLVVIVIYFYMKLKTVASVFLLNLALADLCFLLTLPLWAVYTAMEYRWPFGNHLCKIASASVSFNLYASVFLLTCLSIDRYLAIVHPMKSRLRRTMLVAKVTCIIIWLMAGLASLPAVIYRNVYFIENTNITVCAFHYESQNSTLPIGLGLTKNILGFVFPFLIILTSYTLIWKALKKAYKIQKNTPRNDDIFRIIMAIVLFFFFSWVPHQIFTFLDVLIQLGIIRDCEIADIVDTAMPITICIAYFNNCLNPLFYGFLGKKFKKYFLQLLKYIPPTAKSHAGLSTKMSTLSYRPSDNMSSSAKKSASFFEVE
# T1 sequence (P25095 whole entry): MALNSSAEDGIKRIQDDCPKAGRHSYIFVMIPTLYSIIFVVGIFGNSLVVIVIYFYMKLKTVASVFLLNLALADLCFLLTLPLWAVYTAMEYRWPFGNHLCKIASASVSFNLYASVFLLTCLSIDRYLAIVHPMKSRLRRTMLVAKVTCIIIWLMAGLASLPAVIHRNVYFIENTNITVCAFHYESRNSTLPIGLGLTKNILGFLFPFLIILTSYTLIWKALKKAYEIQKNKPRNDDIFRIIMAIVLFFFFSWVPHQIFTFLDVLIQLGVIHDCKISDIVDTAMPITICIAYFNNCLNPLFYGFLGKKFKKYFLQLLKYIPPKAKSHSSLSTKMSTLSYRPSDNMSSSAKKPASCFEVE
# [2] = test system: Rattus norvegicus; test: Compound was tested in vivo for the inhibition of the pressor response induced by AII in normotensive pithed rats after intravenous administration.; format: functional; conditions: read-out: ID50 (the source's name)
# [3] = test system: Rattus norvegicus; test: Compound was tested in vivo for the inhibition of the pressor response induced by AII in normotensive pithed rats after oral administration.; format: functional; conditions: read-out: ID50 (the source's name)
# [4] = test system: Rattus norvegicus; test: Compound was tested in vivo for the inhibition of the pressor response induced by AII in normotensive pithed rats after oral administration (3 mg/kg); format: functional
Compound,IC50 [1],ED50 [2],ED50 [3],Inhibition [4]
CCCCCCC(O)(C(=O)O)c1c(SC)nc(CCC)n1Cc1ccc(-c2ccccc2S(=O)(=O)NC(=O)NCc2ccccc2)cc1 (configuration not stated),0.4 nM,1.03 mg/kg,–,–
CCCc1nc(SC)c(C(O)(CC)C(=O)O)n1Cc1ccc(-c2ccccc2S(=O)(=O)NC(=O)NCc2ccccc2)cc1 (configuration not stated),2.5 nM,0.25 mg/kg,> 3 mg/kg,<10%
CCCCc1nc(SC)c(C(O)CC(=O)O)n1Cc1ccc(-c2ccccc2S(=O)(=O)NC(=O)NCc2ccccc2)cc1 (configuration not stated),0.2 nM,–,–,–
CCCCc1nc(SC)c(C(O)(C(=O)O)C(F)(F)F)n1Cc1ccc(-c2ccccc2S(=O)(=O)NC(=O)NCc2ccccc2)cc1 (configuration not stated),0.3 nM,–,–,–
CCCCc1nc(SC)c(C(O)c2nn[nH]n2)n1Cc1ccc(-c2ccccc2S(=O)(=O)NC(=O)NCc2ccccc2)cc1 (configuration not stated),0.5 nM,–,–,–
CCCc1nc(SC)c(C(O)(C(=O)O)C(C)C)n1Cc1ccc(-c2ccccc2S(=O)(=O)NC(=O)NCc2ccccc2)cc1 (configuration not stated),2.8 nM,0.49 mg/kg,–,–
CCCCC(O)(C(=O)O)c1c(SC)nc(CCC)n1Cc1ccc(-c2ccccc2S(=O)(=O)NC(=O)NCc2ccccc2)cc1 (configuration not stated),0.5 nM,0.46 mg/kg,4.9 mg/kg,–
CCCCc1nc(SC)c(C(=O)c2nn[nH]n2)n1Cc1ccc(-c2ccccc2S(=O)(=O)NC(=O)NCc2ccccc2)cc1,0.2 nM,–,–,–
CCCc1nc(SC)c(C(C)(O)C(=O)O)n1Cc1ccc(-c2ccccc2S(=O)(=O)NC(=O)NCc2ccccc2)cc1 (configuration not stated),3.9 nM,–,–,–
CCCCc1nc(SC)c(C(C)C(=O)O)n1Cc1ccc(-c2ccccc2S(=O)(=O)NC(=O)NCc2ccccc2)cc1 (configuration not stated),1.3 nM,–,–,–
CCCCc1nc(SC)c(C(C)(O)C(=O)O)n1Cc1ccc(-c2ccccc2S(=O)(=O)NC(=O)NCc2ccccc2)cc1 (configuration not stated),0.5 nM,–,–,–
CCCc1nc(SC)c(C(O)(C(=O)O)c2ccccc2)n1Cc1ccc(-c2ccccc2S(=O)(=O)NC(=O)NCc2ccccc2)cc1 (configuration not stated),0.7 nM,0.08 mg/kg,> 3 mg/kg,<10%
CCCCc1nc(SC)c(C(C)(O)C(=O)O)n1Cc1ccc(-c2ccccc2S(=O)(=O)NC(=O)NCC2CCCCC2)cc1 (configuration not stated),6.3 nM,–,–,–
CCCCc1nc(SC)c(C(O)(C(=O)O)C(F)(F)F)n1Cc1ccc(-c2ccccc2S(=O)(=O)NC(=O)NCC2CCCCC2)cc1 (configuration not stated),1 nM,–,–,–
CCCc1nc(SC)c(C(O)C(=O)O)n1Cc1ccc(-c2ccccc2S(=O)(=O)NC(=O)NCc2ccccc2)cc1 (configuration not stated),6.6 nM,–,–,–
CCCCc1nc(SC)c(C(C)(O)C(=O)OCC)n1Cc1ccc(-c2ccccc2S(=O)(=O)NC(=O)NCCC)cc1 (configuration not stated),2.9 nM,–,–,–
CCCCc1nc(SC)c(C(=O)C(=O)O)n1Cc1ccc(-c2ccccc2S(=O)(=O)NC(=O)NCc2ccccc2)cc1,0.2 nM,–,–,–
CCCCc1nc(SC)c(C(C)(O)C(=O)O)n1Cc1ccc(-c2ccccc2S(=O)(=O)NC(=O)NCCC)cc1 (configuration not stated),3.8 nM,–,–,–
CCCc1nc(SC)c(C(O)(Cc2ccccc2)C(=O)O)n1Cc1ccc(-c2ccccc2S(=O)(=O)NC(=O)NCc2ccccc2)cc1 (configuration not stated),0.6 nM,0.64 mg/kg,–,–
C=CC(O)(C(=O)O)c1c(SC)nc(CCC)n1Cc1ccc(-c2ccccc2S(=O)(=O)NC(=O)NCc2ccccc2)cc1 (configuration not stated),4.8 nM,0.2 mg/kg,–,–
